Assay results as given in PMC9618804, “CXCR1 and its downstream NF-κB inflammation signaling pathway as a key target of Guanxinning injection for myocardial ischemia/reperfusion injury” (Frontiers in Immunology, 2022).

Assays:
hCXCR1 = target: T1, hCXCR1 (Homo sapiens, UniProt P25024); assay: CETSA in cell lysate, Western blot; type: biochemical; conditions: AC-16 lysate; 20 uM DSS, 30 min at room temperature, 3 min at 37-73 C
T1 construct: gene CXCR1; native full-length receptor in freeze-thaw lysate supernatant of human AC-16 cardiomyocytes; detected by Western blot
T1 sequence (P25024 1-350): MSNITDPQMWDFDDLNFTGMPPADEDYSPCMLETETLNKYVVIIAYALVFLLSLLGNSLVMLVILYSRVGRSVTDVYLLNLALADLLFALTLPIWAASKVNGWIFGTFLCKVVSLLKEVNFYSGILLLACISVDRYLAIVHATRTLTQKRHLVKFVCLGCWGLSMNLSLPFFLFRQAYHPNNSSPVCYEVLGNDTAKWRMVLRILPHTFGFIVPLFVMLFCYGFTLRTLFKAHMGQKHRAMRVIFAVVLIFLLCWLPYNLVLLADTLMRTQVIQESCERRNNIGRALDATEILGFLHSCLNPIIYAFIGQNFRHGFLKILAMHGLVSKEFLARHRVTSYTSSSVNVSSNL

mCXCR1 = target: T2, mCXCR1 (Mus musculus, UniProt Q810W6); assay: CETSA and isothermal dose-response (ITDRF-CETSA) in cell lysate, Western blot; type: biochemical; conditions: HL-1 lysate; 20 uM DSS, 30 min at room temperature, 3 min at 37-73 C; ITDRF 0-20 uM at 61 C
T2 construct: gene Cxcr1; native full-length receptor in freeze-thaw lysate supernatant of mouse HL-1 cardiomyocytes; detected by Western blot (anti-CXCR1 bs-1009R)
T2 sequence (Q810W6 1-351): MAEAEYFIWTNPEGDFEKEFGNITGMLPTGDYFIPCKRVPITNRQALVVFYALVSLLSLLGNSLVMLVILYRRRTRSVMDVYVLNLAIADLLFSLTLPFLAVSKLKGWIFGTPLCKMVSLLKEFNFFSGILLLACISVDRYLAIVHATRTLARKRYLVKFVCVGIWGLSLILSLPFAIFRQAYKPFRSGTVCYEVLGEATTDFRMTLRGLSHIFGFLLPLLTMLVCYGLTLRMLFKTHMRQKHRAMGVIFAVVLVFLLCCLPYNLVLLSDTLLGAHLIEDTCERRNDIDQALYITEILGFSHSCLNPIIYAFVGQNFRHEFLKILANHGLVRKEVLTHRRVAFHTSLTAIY

## O=C(O)[C@H](O)Cc1ccc(O)c(O)c1 [DSS, Danshensu]
hCXCR1
  thermal stabilization (CETSA): DSS also binds to hCXCR1 to increase its thermal stability
mCXCR1
  thermal stabilization (CETSA): this thermal stabilization between Danshensu and mCXCR1 was dose dependent from ITDRFCETSA
